What all share (assay type): in vivo, C57BL/6N mice
Test [1] concerns mice with adenine-induced renal failure. Nature of the test: Blood urea nitrogen (BUN) in adenine-induced renal failure mice. On the procedure:
(§1) • a) Control group: Fed with adenine-free feed; other procedures were the same as those in the model group. • b) Model group: Fed with feed containing 0.25% adenine for modelling. • c) LY-10 mg/kg group: Model+LY2922470 (10 mg/kg, p.o., QD). • d) LY-30 mg/kg group: Model+LY2922470 (30 mg/kg, p.o., QD). • e) LY-60 mg/kg group: Model+LY2922470 (60 mg/kg, p.o., QD). • f) TAK875 group: Model+TAK875 (30 mg/kg, p.o., QD).
(§2) Except for the control group, all other mice were fed with a diet containing 0.25% adenine for modelling. The control group was fed with a normal diet. All mice were allowed free access to food. One week after modeling, each group of mice was administered the respective treatment via oral gavage once daily in the afternoon for two consecutive weeks. The control group and the model group received vehicle under a same condition. The adenine-containing diet was continuously administered for modeling throughout the treatment period until the end of the experiment. The physical condition of the mice was monitored, and body weight was measured and recorded weekly. Blood samples were collected from the orbital venous plexus at 1 week (post-modeling) and 3 weeks (after 2 weeks of treatment). Serum was separated for the measurement of serum creatinine (CRE) and blood urea nitrogen (BUN). At the end of the two-week treatment, renal function of each group was assessed using a TGFR renal function monitoring and smart analysis system. After testing, tissues were collected from the mice to confirm the efficacy of the treatment.
(§3) Statistical analyses were performed using GraphPad Prism 8.0 software. Continuous data of each group were expressed as mean+SD. One-way ANOVA was used for multi-group comparisons, and Student's t-test was used for comparisons between two groups. A p-value<0.05 was considered statistically significant. For categorical data, chi-square tests were used to compare between groups, with p<0.05 indicating a statistically significant difference.
(§4) Mice were fed a 0.25% adenine-containing diet. After one week, the mice were treated with LY2922470 or TAK875. During the treatment period, the adenine-containing diet was continued for modeling. After three weeks of adenine feeding (i.e., two weeks of drug administration), blood samples were collected from the mice, and serum was isolated for CREA and BUN measurements.

The test system is the same in test [2]. Kind of test: Renal fibrosis by Masson's trichrome staining in adenine-induced renal failure mice. The following applies: TAK875 30 mg/kg p.o. QD for 2 weeks; 3 weeks of modeling; FIG. 6. On the procedure: Mice were modeled and administered drugs as described in Example 3. After two weeks of drug administration, the mice were euthanized, and their kidneys were fixed, sectioned, stained with Masson's trichrome, and analyzed.
Whole-slide scanning was performed using a fully automated digital pathology scanner KF-PRO-120 from Ningbo Jiangfeng Bioinformatics Technology Co., Ltd. Masson-stained images were analyzed using the Area Quantification module in HALO software. The blue staining of collagen fibers was used as the unified criterion for positivity. The images were analyzed, and the percentage of blue-stained collagen fibers in the tissue was calculated.
Statistical analysis was conducted using GraphPad Prism 8.0. Continuous data for each group were expressed as mean+SD. One-way ANOVA was used for multi-group comparisons, and Student's t-test was used for comparisons between two groups. A p-value<0.05 was considered statistically significant. For categorical data, chi-square tests were used for comparisons among groups, and a p-value<0.05 was considered statistically significant.

Test [3] shares this test system. Nature of the test: Serum creatinine (CREA) in adenine-induced renal failure mice. On the procedure:
as §1, §2, §3, §4

Test [4] deals with mice with sustained adenine-induced renal failure. Kind of test: Glomerular filtration rate in mice with sustained adenine-induced renal failure (TGFR system). The following applies: TAK875 30 mg/kg p.o. QD for 2 weeks; 3 weeks continuous 0.25% adenine diet; FIG. 4. On the procedure:
as §1, §2, §3
One week later, LY2922470 or TAK875 was administrated for treatment. […]

Test [5] relates to mice with adenine-induced renal failure. Kind of test: Survival of mice with adenine-induced renal failure. The following applies: TAK875 30 mg/kg p.o. QD. On the procedure: • 1. Experimental Animals: C57BL/6N, 8 weeks old, SPF grade, male. • 2. Experimental Drugs: • LY2922470 (Shanghai Taoshu Biotechnology Co., Ltd.) • TAK875 (Shanghai Taoshu Biotechnology Co., Ltd.)
1) Preparation of TAK875: A total of 27 mg of TAK875 powder was accurately weighed using an analytical balance and dissolved in 9 mL of 0.8% CMC-Na solution. The mixture was sonicated for 5 minutes to form a 3 mg/mL white suspension. The suspension was stored at 4° C. for later use.
2) Preparation of LY2922470: A total of 80 mg of LY2922470 yellow crystals was added to 200 μL of DMSO to form a clear yellow solution. The solution was gradually added in batches to 10 mL of 0.8% CMC-Na solution. After heating and sonication for 5 hours, an 8 mg/mL white suspension of LY2922470 was obtained. The suspension was stored at 4° C. for later use.
Eight-week-old male C57BL/6N mice were acclimatized for one week and then randomly divided into six groups. Except for the control group, all mice were fed a 0.25% adenine-containing diet for modelling. The control group received a normal diet. The mice had free access to food. One week after model induction, mice in each group were orally administered the corresponding drug once daily in the afternoon, according to their group assignment. The control group and the model group received vehicle under a same condition. During the treatment period, the adenine-containing diet was continued. Mouse survival was monitored until the end of the experiment.

Setting [6] is: TAK875 30 mg/kg p.o. QD for 2 weeks.
[7] abbreviates: TAK875 30 mg/kg p.o. QD, mean ± SD.

Take `Cc1cc(OCCCS(C)(=O)=O)cc(C)c1-c1cccc(COc2ccc3c(c2)OC[C@H]3CC(=O)O)c1` [TAK875]: the “BUN level compared with the model group” value in test [1] (setting [6]) was “did not significantly reduce”. Besides, in test [1] (setting [7]), the “BUN after modeling for 3 weeks (after drug administration for 2 weeks)” value worked out at 25.07 ± 4.91 mmol/L. Moreover, in test [1] (baseline of the TAK875 30 mg/kg group, mean ± SD), the “BUN after modeling for 1 week (before drug administration)” value came to 11.25 ± 3.98 mmol/L. Further, the “Degree of renal fibrosis compared to the model group (Masson staining)” value in test [2] is “not significantly reduced”. Besides, the “CREA level compared with the model group” value in test [3] (setting [6]) was “did not significantly reduce”. Further, the “CREA after modeling for 3 weeks (after drug administration for 2 weeks)” value in test [3] (setting [7]) was determined as 137.68 ± 30.23 µmol/L. The “GFR compared with the model group” value in test [4] is recorded as “increased”. Besides, the “Survival Rate (%)” value in test [5] (started 1 week after start of continued 0.25% adenine diet, end of experiment, 30 mg/kg) is given as 46.2%. For the same compound, the “Count after Drug Administration (surviving mice)” value in test [5] (13 at enrollment) amounted to 6.

Source of the values: patent publication US20250281478A1, “METHODS FOR PREVENTING OR TREATING KIDNEY DISEASES” (JEAMOON BEIJING CO., LTD., priority 2022, published 2025).
